{
  "source": "patent US8946291B2",
  "about": "“Compositions and methods for treating pigmentary conditions and melanoma” (The United States of America, as represented by the …, priority 2008, dated 2015)",
  "key": {"melanoma cells": {"test_system": "melanoma cells", "settings": "literature (14-17); cited from earlier work"}, "A375 cells": {"test_system": "A375 cells", "assay": "Proliferation assay (crystal violet) in A375 melanoma cells", "type": "cell-based, human", "procedure": "B16/F10 melanoma cells, SKMel 28 and A375 cells were obtained from the ATCC (Manassas, Va., USA). Mel Juso cells are a generous gift from Dr. Hornyak at the National Cancer Institute. A375, SK Mel 28 and B16 cells were grown at 37° C. under 5% CO2 in DMEM supplemented with 7% Fetal Bovine Serum (FBS) and penicillin (100 U/ml) and streptomycin (50 ug/ml). Mel Juso cells were grown at 37° C. under 5% CO2 in RPMI medium supplemented with 10% FBS and penicillin (100 U/ml) and streptomycin (50 ug/ml). Retinoic acid (10^−7M) and Prostaglandin D2 (0.5 ug/ml) were purchased from Sigma-Aldrich (St-Louis, Mo., USA).\nThe cells were transfected with a pBabe vector to give them a resistance to puromycin. At the same time, they were transfected with SOX9 cDNA or empty vector as control. Depending on the experiment, cells were also transfected the day after with SiRNA p21 or SiRNA Mock. After 10 to 15 d, the clones were fixed and stained with crystal violet. Proliferation was measured according to the optical density of the color."}, "SOX9 [1]": {"test_system": "SOX9", "assay": "SOX9 protein expression in normal human melanocytes (metabolic labeling, immunoblotting, immunocytochemistry)", "type": "cell-based", "settings": "for SOX9 regulation in human melanocytes: statement in the discussion", "procedure": "Cultures in 100 mm dishes were solubilized in […] mammalian protein extraction reagent (Pierce Biotechnology, Rockford, Ill., USA) and Protease Inhibitor cocktail (Roche, Mannheim, Germany). Protein concentrations of extracts were measured using the BCA protein assay kit (Pierce, Rockford, Ill., USA). Cell extracts (20 μg) were separated on 8-16% gradient SDS polyacrylamide gels (Invitrogen). After electrophoresis, proteins were transferred electrophoretically from the gels to Invitrolon PVDF transfer membranes (Invitrogen). The filters were incubated with antibodies to SOX9 (rabbit 1:500; Abeam, Cambridge, UK), SOX10 (goat 1:200; Santa Cruz, Santa Cruz, Calif., USA), DCT (1:2,000; (22)), Tyrosinase (rabbit 1:10,000; (22)), or GAPDH (rabbit 1:10,000, Santa Cruz) for 1 h at 23° C. to overnight at 4° C. (depending on the antibody) and were then incubated with horseradish peroxidase-linked anti-rabbit, anti-mouse or anti-goat whole antibodies (at 1:1,0000, GE Healthcare, Buckinghamshire, UK) at room temperature for 1 h. Antigens were detected using ECL-plus Western Blotting Detection System (GE Healthcare). Blots were quantitated using Scion Image Software (Scion Corp., Frederick, Md., USA). Each experiment was performed at least in triplicate.\nMelanocyte cultures in two well Lab-Tek chamber slides (Nalge Nune International Corp., Naperville, Ill., USA) were processed for indirect fluorescence to detect the expression of proteins using primary antibodies to SOX9 (rabbit 1:50, Abcam), MITF-ab3 (mouse 1:100 dilution; NeoMarkers, Fremont, Calif., USA), DCT (rabbit 1:7,500; (22)) and Tyrosinase (rabbit 1:700; (22)). Bound antibodies were visualized with appropriate secondary antibodies, Alexa Fluor® 488 goat anti-rabbit IgG (H+L) (Molecular Probes, Inc., Eugene, Oreg., USA), Alexa Fluor® 594 mouse anti-rabbit IgG (H+L) (Molecular Probes), Alexa Fluor® 488 goat anti-mouse IgG (H+L) (Molecular Probes) or Alexa Fluor® 594 goat anti-mouse IgG (H+L) (Molecular Probes) at 37° C. for 30 min at 1:500 dilution with 5% goat serum. DAPI (Vector, Burlingame, Calif.; USA) was used as a counter-stain. The green fluorescence produced by Alexa 488®, red produced by Alexa 594®, and blue by DAPI was observed and captured using a Leica DMR B/D MLD fluorescence microscope (Leica, Wetzlar, Germany) and a Dage-MTI 3CCD 3-chip color video camera (Dage-MTI, Michigan City, Ind., USA).\nRadioactive metabolic labeling and immunoprecipitation was performed as described previously (58). Where indicated, cells were irradiated with 21 mJ/cm^2 UVB and/or chemical agents were added from the “pulse” period to the “chase” period. Cell extracts were incubated with normal rabbit serum (Vector, Burlingame, Calif., USA) and were then incubated with protein G beads (GE Healthcare). The supernatants were incubated with SOX9 (Abcam) or GAPDH (Santa-Cruz) antibodies. The immune-complexes were separated by incubation with beads and were further washed with immunoprecipitate lysis buffer. The pellets were eluted, electrophoresed and visualized by autoradiography."}, "TYR promoter": {"test_system": "TYR promoter", "assay": "Luciferase assay of TYR promoter in HeLa cells", "type": "cell-based, human", "settings": "forskolin (data not shown)", "procedure": "(§1) B16 melanoma cells or HeLa cells were seeded in 24-well dishes and were transfected with 0.3 μg of the luciferase reporter plasmid and 0.05 μg of pCMVβGal (Promega, Madison, Wis., USA) to control the variability of transfection efficiency. In some experiments, SOX9 was over-expressed using 0.1 μg of the pcDNA3 encoding SOX9, or was silenced with SOX9 siRNA (100 nM). Empty pcDNA3 or siRNA scrambles were used as controls depending on the experiments. All transfections were made with Lipofectamine (Invitrogen) according to the instructions of the manufacturer. Thirty-six h later, cells were washed with a saline phosphate buffer and lysed with reporter lysis buffer (Promega). Soluble extracts were harvested and assayed for luciferase and β-galactosidase activities. All transfections were repeated at least 3 times using different plasmid preparations and gave similar results. The pMITF wild-type and mutants, pDCT, pTYR, and pCRE constructs used were described previously (26, 43, 59)."}, "DCT promoter": {"test_system": "DCT promoter", "assay": "Luciferase assay of DCT promoter in HeLa cells", "type": "cell-based, human", "settings": "forskolin (data not shown)", "procedure": "as §1"}, "SOX9 [2]": {"test_system": "SOX9", "settings": "by promoting phosphorylation and nuclear translocation, literature (13); cited from earlier work"}, "PRAME": {"test_system": "PRAME", "assay": "PRAME expression in melanoma cells (immunoprecipitation / immunoblotting)", "type": "cell-based, human", "settings": "A375 cells treated with PGD2 for 72 h", "procedure": "(§2) SOX9 has been extensively studied in chondrocytes due to its key role for collagen II synthesis. […] First, S35 labeling was performed on A375 cells treated or not treated with PGD2 for 72 h. Proteins were then extracted and immunoprecipitated with SOX9 and PRAME antibodies (GAPDH was used as a control). SOX9 was increased after treatment with PGD2 whereas PRAME was decreased (FIG. 3B). […] A further proliferation assay with or without RA treatment, using PGD2 instead of the transfection with SOX9, was performed.\n(§3) Cells were solubilized in M-PER® mammalian protein extraction reagent (Pierce Biotechnology, Rockford, Ill., USA) containing Protease Inhibitor cocktail (Roche, Mannheim, Germany). Protein concentrations of extracts were measured using the BCA protein assay kit (Pierce, Rockford, Ill., USA). Cell extracts (30 μg) were separated on SDS polyacrylamide gels (Invitrogen). After electrophoresis, proteins were transferred electrophoretically from the gels to Invitrolon PVDF transfer membranes (Invitrogen). […] Antigens were detected using ECL-plus Western Blotting Detection System (GE Healthcare). […]"}, "SOX9 [3]": {"test_system": "SOX9", "assay": "SOX9 expression in A375 cells (S35 labeling and immunoprecipitation / immunoblotting)", "type": "cell-based, human", "settings": "A375 cells treated with PGD2 for 72 h", "procedure": "as §2, §3"}, "SOX9 [4]": {"test_system": "SOX9", "assay": "SOX9 mRNA expression in normal human melanocytes by RT-PCR", "type": "cell-based", "settings": "n-MP NHM, 4 h after ASP treatment", "from_the_text": "Total RNA was reverse-transcribed using SuperScript III (Invitrogen). PCR reactions consisted of 25 cycles for β-actin and 35 cycles for SOX9 using Taq DNA polymerase (Invitrogen). PCR products for β-actin and SOX9 were 838 bp, and 288 bp, respectively, and were electrophoresed in parallel with DNA molecular mass markers (Invitrogen). Oligonucleotide primers used for PCR were based on mRNA sequences as follows: human SOX9 sense primer 5′-[…]-3′ (SEQ ID NO:5); human SOX9 antisense primer 5′-[…]-3′ (SEQ ID NO:6), β-actin sense primer 5′-[…]-3′ (SEQ ID NO:7); β-actin antisense primer 5′-[…]-3′ (SEQ ID NO:8). Each experiment was repeated at least in triplicate independently."}, "[5]": {"test_system": "mouse melanocytes, melanoma cells, NHM", "settings": "literature (38-40); cited from earlier work"}, "[6]": {"settings": "NHM, 21 mJ/cm^2 UVB, pretreatment with H89"}},
  "data": [
    {"molecule": "Δ2-PGJ2", "values": [
      {"measurement": "proliferation of melanoma cells and other cancer cells", "setting": "melanoma cells", "result": "decrease the proliferation"}
    ]},
    {"molecule": "CC1=C(/C=C/C(C)=C/C=C/C(C)=C/C(=O)O)C(C)(C)CCC1", "note": "[RA, retinoic acid]", "values": [
      {"measurement": "proliferation of A375 cells", "setting": "A375 cells; RA 10^−7 M alone", "result": "no effect"}
    ]},
    {"molecule": "αMSH", "values": [
      {"measurement": "SOX9 regulation in human melanocytes", "setting": "SOX9 [1]", "result": "up-regulated"}
    ]},
    {"molecule": "O=S(=O)(NCCNC/C=C/c1ccc(Br)cc1)c1cccc2cnccc12", "note": "[H89]", "values": [
      {"measurement": "UVB-induced expression of SOX9", "setting": "SOX9 [1]; [6]", "result": "prevented the increased expression"},
      {"measurement": "UVB-induced expression of SOX9 phosphorylated at serine 181", "setting": "SOX9 [1]; [6]", "result": "prevented the increased expression"}
    ]},
    {"molecule": "C=C[C@@]1(C)CC(=O)[C@]2(O)[C@@]3(C)[C@@H](O)CCC(C)(C)[C@@H]3[C@H](O)[C@H](OC(C)=O)[C@@]2(C)O1", "note": "[forskolin]", "values": [
      {"measurement": "TYR promoter activity", "setting": "TYR promoter", "result": "no effect"},
      {"measurement": "DCT promoter activity", "setting": "DCT promoter", "result": "no effect"}
    ]},
    {"molecule": "CCCCC[C@H](O)/C=C/[C@H]1C(=O)C[C@H](O)[C@@H]1C/C=C\\CCCC(=O)O", "note": "[PGD2, prostaglandin D2]", "values": [
      {"measurement": "proliferation of melanoma cells and other cancer cells", "setting": "melanoma cells", "result": "decrease the proliferation"},
      {"measurement": "proliferation of A375 cells", "setting": "A375 cells; PGD2 0.5 μg/μl alone", "result": "inhibited"},
      {"measurement": "SOX9 activity in chondrocytes", "setting": "SOX9 [2]", "result": "increase SOX9 activity"},
      {"measurement": "PRAME expression", "setting": "PRAME", "result": "decreased"},
      {"measurement": "SOX9 expression", "setting": "SOX9 [3]", "result": "increased"}
    ]},
    {"molecule": "ASP: recombinant mouse protein, antagonist of the melanocortin I receptor (MC1R) (protein, UniProt Q03288 23-131, looked up) Agouti-signaling protein: HLALEETLGDDRSLRSNSSMNSLDFSSVSIVALNKKSKKISRKEAEKRKRSSKKKASMKKVARPPPPSPCVATRDSCKPPAPACCDPCASCQCRFFGSACTCRVLNPNC", "values": [
      {"measurement": "expression level of SOX9 (RT-PCR)", "setting": "SOX9 [4]", "result": "decreased"},
      {"measurement": "melanin formation", "setting": "[5]", "result": "inhibits melanin formation"},
      {"measurement": "SOX9 expression (immunoblotting)", "setting": "SOX9 [1]; n-MP NHM treated 48 h with ASP", "result": "significantly decreased"},
      {"measurement": "SOX9 regulation in human melanocytes", "setting": "SOX9 [1]", "result": "down-regulated"}
    ]}
  ]
}
